Results: ChEMBL document CHEMBL1123567, “2-Oxo-1,8-naphthyridine-3-carboxylic acid derivatives with potent gastric antisecretory properties” (1987)

How the values were obtained:
Rattus norvegicus [1] = assay: Antisecretory activity at 32 mg/kg dose administered intraduodenally in the pylorus-ligated rat; type: functional; settings: route intraduodenal
Rattus norvegicus [2] = assay: Antisecretory activity (total acid output) at 16 mg/kg dose administered intraduodenally in the pylorus-ligated rat; type: functional; settings: route intraduodenal
Rattus norvegicus [3] = assay: Antisecretory activity (total acid output) at 2 mg/kg dose administered intraduodenally in the pylorus-ligated rat; type: functional; settings: route intraduodenal
Canis familiaris [4] = assay: Antisecretory activity (total acid output) at 4 mg/kg dose administered (po) in Gastric pouch dog was determined by dose related inhibition of food stimulated gastric acid secretion; type: functional, Canis lupus familiaris, Stomach; parameters: scale not given: the % may be the effect or the level left
Rattus norvegicus [5] = assay: Antisecretory activity (total acid output) at 8 mg/kg dose administered intraduodenally in the pylorus-ligated rat; type: functional; settings: route intraduodenal
Canis familiaris [6] = assay: Antisecretory activity (total acid output) at 2 mg/kg dose administered (po) in Gastric pouch dog was determined by dose related inhibition of food stimulated gastric acid secretion; type: functional, Canis lupus familiaris, Stomach; parameters: scale not given: the % may be the effect or the level left
Rattus norvegicus [7] = assay: Antisecretory activity (total acid output) at 4 mg/kg dose administered intraduodenally in the pylorus-ligated rat; type: functional; settings: route intraduodenal
Canis familiaris [8] = assay: Antisecretory activity (total acid output) at 16 mg/kg dose administered (po) in Gastric pouch dog was determined by dose related inhibition of food stimulated gastric acid secretion; type: functional, Canis lupus familiaris, Stomach; parameters: scale not given: the % may be the effect or the level left
Canis familiaris [9] = assay: Antisecretory activity (total acid output) at 8 mg/kg dose administered (po) in Gastric pouch dog was determined by dose related inhibition of food stimulated gastric acid secretion; type: functional, Canis lupus familiaris, Stomach; parameters: scale not given: the % may be the effect or the level left
Rattus norvegicus [10] = assay: Antisecretory activity (total acid output) at 0.5 mg/kg dose administered intraduodenally in the pylorus-ligated rat; type: functional; settings: route intraduodenal

`CCOC(=O)c1c(Cl)c2ccc(C)nc2n(CC)c1=O` showed a Control (Rattus norvegicus [1]) of 66%.

`CCOC(=O)c1c(O)c2cccnc2n(CC)c1=O` gave a Control (Rattus norvegicus [1]) of 63%.

Compound `CCn1c(=O)c(C(=O)O)c(N)c2cccnc21` has a Control (Rattus norvegicus [1]) of 37%.

With `CCOC(=O)c1c(N2CCNCC2)c2ccc(C)nc2n(CC)c1=O` the Control (Rattus norvegicus [1]) was 10%.

`CCOC(=O)c1c(N)c2c(C)cc(C)nc2n(CC)c1=O` was tested, and the Control (Rattus norvegicus [1]) was 50%.

`CCOC(=O)c1c(N(CC)CC)c2ccc(C)nc2n(CC)c1=O` was tested, and the Control (Rattus norvegicus [1]) was 55%.

`CCCCOC(=O)c1c(N)c2cccnc2n(CC)c1=O` gave a Control (Rattus norvegicus [1]) of 26%.

`CCOC(=O)c1c(N2CCN(C)CC2)c2ccc(C)nc2n(C)c1=O` gave a Control (Rattus norvegicus [1]) of 9%.

`CCOC(=O)c1c(N)c2ccc(C)nc2n(CCO)c1=O` gave a Control (Rattus norvegicus [1]) of 74%.

For `CCOC(=O)c1c(O)c2ccc(C)nc2n(CC)c1=O`, the Control (Rattus norvegicus [1]) was 53%.

`CCn1c(=O)c(C(N)=O)c(N)c2cccnc21` gave a Control (Rattus norvegicus [1]) of 19%.

`CCOC(=O)c1c(N2CC[N+](C)(C)CC2)c2ccc(C)nc2n(CC)c1=O.[Cl-]` showed a Control (Rattus norvegicus [1]) of 123%.

`CCOC(=O)c1c(O)c2ccc(C)nc2n(C)c1=O` showed a Control (Rattus norvegicus [1]) of 51%.

For `CCOC(=O)c1c(N2CCCC2)c2cccnc2n(C)c1=O`, the Control (Rattus norvegicus [1]) was 51%.

Compound `CCOC(=O)c1c(N2CCN(C)CC2)c2ccc(C)nc2n(CC)c1=O` has a Control (Rattus norvegicus [2]) of 28%, a Control (Rattus norvegicus [3]) of 85% and a Control (Canis familiaris [4]) of 40%. For the same compound, the Control (Rattus norvegicus [1]) was 7.5%, the Control (Rattus norvegicus [5]) was 45% and the Control (Canis familiaris [6]) was 95%. It also gave a Control (Rattus norvegicus [7]) of 66%.

In the case of `CCOC(=O)c1c(NC(C)=O)c2cccnc2n(CC)c1=O`, the Control (Rattus norvegicus [1]) was 67%.

For `CCOC(=O)c1c(N)c2cccnc2n(CC)c1=O`, the Control (Canis familiaris [8]) was 62%, the Control (Rattus norvegicus [2]) was 17% and the Control (Rattus norvegicus [3]) was 58%. The Control (Canis familiaris [9]) was 97%, the Control (Canis familiaris [4]) was 92% and the Control (Rattus norvegicus [1]) was 18%. For the same compound, the Control (Rattus norvegicus [10]) was 100%, the Control (Rattus norvegicus [5]) was 35% and the Control (Rattus norvegicus [7]) was 55%.

With `CCOC(=O)c1c(NCCCN(C)C)c2ccc(C)nc2n(CC)c1=O` the Control (Rattus norvegicus [1]) was 77%.

With `CCn1c(=O)c(C(N)=O)c(N)c2ccc(C)nc21` the Control (Rattus norvegicus [1]) was 55%.

Compound `CCOC(=O)c1c(N(C(C)=O)C(C)=O)c2cccnc2n(CC)c1=O` has a Control (Rattus norvegicus [1]) of 59%.

In the case of `C=CCn1c(=O)c(C(=O)OCC)c(N2CCCC2)c2ccc(C)nc21`, the Control (Rattus norvegicus [1]) was 59%.

`C=CCn1c(=O)c(C(=O)OCC)c(N)c2cccnc21` gave a Control (Rattus norvegicus [1]) of 22%.

`CCOC(=O)c1c(N)c2cccnc2n(C)c1=O` showed a Control (Rattus norvegicus [1]) of 21%.

`CCn1c(=O)c(C(=O)O)c(N2CCN(C)CC2)c2ccc(C)nc21` gave a Control (Rattus norvegicus [1]) of 89%.

With `CCOC(=O)c1c(O)nc2ncccc2c1N` the Control (Rattus norvegicus [1]) was 44%.

`CCOC(=O)c1c(N2CCN(C)CC2)c2cccnc2n(CC)c1=O` was tested, and the Control (Rattus norvegicus [1]) was 17%.

Work on `CCOC(=O)c1c(NC(=O)C(F)(F)F)c2cccnc2n(CC)c1=O` yielded a Control (Rattus norvegicus [1]) of 22%.

In the case of `C=CCn1c(=O)c(C(=O)O)c(NC(=O)CCl)c2cccnc21`, the Control (Rattus norvegicus [1]) was 63%.

`CCOC(=O)c1c(N)c2ccc(C)nc2n(CC)c1=O` gave a Control (Rattus norvegicus [1]) of 33%.

For `CCCn1c(=O)c(C(=O)OCC)c(N)c2cccnc21`, the Control (Rattus norvegicus [1]) was 30%.

For `CCOC(=O)c1c(N2CCN(C)CC2)c2cccnc2n(C)c1=O`, the Control (Rattus norvegicus [1]) was 25%.

Compound `CCOC(=O)c1c(N2CCOCC2)c2ccc(C)nc2n(CC)c1=O` has a Control (Rattus norvegicus [1]) of 22%.

`CCn1c(=O)c(C(=O)NN)c(N)c2cccnc21` was tested, and the Control (Rattus norvegicus [1]) was 29%.

`CCOC(=O)c1c(OCC)c2ccc(C)nc2n(CC)c1=O` gave a Control (Rattus norvegicus [1]) of 46%.

In the case of `CCOC(=O)c1c(N2CCCC2)c2ccc(C)nc2n(CC)c1=O`, the Control (Rattus norvegicus [1]) was 29%.

For `Nc1c(C(=O)O)c(O)nc2ncccc12`, the Control (Rattus norvegicus [1]) was 72%.

Compound `CCOC(=O)c1c(O)nc2nc(C)cc(C)c2c1N` has a Control (Rattus norvegicus [1]) of 89%.

With `CCOC(=O)c1c(N2CCN(C(=O)OCC)CC2)c2ccc(C)nc2n(CC)c1=O` the Control (Rattus norvegicus [1]) was 70%.

In the case of `CCOC(=O)c1c(O)nc2nc(C)ccc2c1N1CCN(C)CC1`, the Control (Rattus norvegicus [1]) was 34%.

`CCC(C)OC(=O)c1c(N)c2cccnc2n(CC)c1=O` (stereo unspecified) was tested, and the Control (Rattus norvegicus [1]) was 42%.

`CN/C(=N\CCSCc1nc[nH]c1C)NC#N` [CIMETIDINE] was tested, and the “Inhibition of gastric acid secretion (% relative to control)” value (Rattus norvegicus [1]) was 80%.

`CCOC(=O)c1c(N(C(C)=O)C(C)=O)c2c(C)cc(C)nc2n(CC)c1=O` gave a Control (Rattus norvegicus [1]) of 76%.

For `CCOC(=O)c1c(N2CCCC2)c2ccc(C)nc2n(C)c1=O`, the Control (Rattus norvegicus [1]) was 32%.

With `CCOC(=O)c1c(N)c2cccnc2n(C2CCCCC2)c1=O` the Control (Rattus norvegicus [1]) was 48%.

In the case of `CCNc1cc(C)c2c(N)c(C(=O)OCC)c(=O)n(CC)c2n1`, the Control (Rattus norvegicus [1]) was 58%.

`C=CCn1c(=O)c(C(=O)OCC)c(O)c2ccc(C)nc21` was tested, and the Control (Rattus norvegicus [1]) was 73%.

With `CCn1c(=O)c(C(=O)O)c(N)c2cc(NC(C)=O)cnc21` the Control (Rattus norvegicus [1]) was 82%.

Work on `CCN(CC)CCOC(=O)c1c(N)c2cccnc2n(CC)c1=O` yielded a Control (Rattus norvegicus [1]) of 40%.

`CCNc1c(C(=O)OCC)c(=O)n(CC)c2nc(C)ccc12` was tested, and the Control (Rattus norvegicus [1]) was 36%.

Compound `CCn1c(=O)c(C#N)c(N)c2ccc(C)nc21` has a Control (Rattus norvegicus [1]) of 62%.

`CCOC(=O)C(=O)Nc1c(C(=O)OCC)c(=O)n(CC)c2ncccc12` was tested, and the Control (Rattus norvegicus [1]) was 28%.

For `CCOC(=O)c1c(N(C)CCO)c2ccc(C)nc2n(CC)c1=O`, the Control (Rattus norvegicus [1]) was 59%.

`CCOC(=O)c1c(N)c2cccnc2n(CC(C)C)c1=O` gave a Control (Rattus norvegicus [1]) of 28%.

For `CCN(CC)CCNC(=O)c1c(N)c2cccnc2n(CC)c1=O`, the Control (Rattus norvegicus [1]) was 56%.

Work on `CCn1c(=O)c(C#N)c(N2CCCC2)c2ccc(C)nc21` yielded a Control (Rattus norvegicus [1]) of 67%.

`CCOC(=O)c1c(NCC(O)c2ccccc2)c2ccc(C)nc2n(CC)c1=O` (stereo unspecified) gave a Control (Rattus norvegicus [1]) of 111%.

In the case of `CCNC(=O)c1c(N)c2cccnc2n(CC)c1=O`, the Control (Rattus norvegicus [1]) was 28%.
